One assay deals with P. aeruginosa ATCC 27853. The assay can be described thus: Broth microdilution MIC, P. aeruginosa ATCC 27853. The class given is cell-based. Conditions: Pseudomonas aeruginosa, ATCC27853, read-out: MIC P. aeruginosa ATCC 27853. The protocol:
To determine the ability of test compounds to potentiate the inhibition of the growth of bacterial strains, classic cell based broth microdilution minimum inhibitory concentration (MIC) assays were employed. MIC assays are performed according to CLSI methods except where otherwise noted (CLSI, 2011 and CLSI, 2009). The reference type strain E. coli ATCC 25922, the wild-type parent strain E. coli AG100, the hyper-permeable E. coli 901C and E. coli D22 and the E. coli AG100A strain lacking the acrAB efflux pump encoding genes were used to determine the ability of the PBP inhibitors to penetrate the outer membrane of gram-negative bacteria and inhibit bacterial growth. […] The P. aeruginosa PAO1, P. aeruginosa ATCC 27853 and A. baumannii ATCC 19606, along with the hyper-permeable P. aeruginosa ATCC 35151 and an engineered efflux pump-compromised strain of P. aeruginosa (ΔmexAB-oprM) were used to determine the ability of PBP inhibitors to penetrate the outer membrane of P. aeruginosa and A. baumannii and assess antibacterial activity against these important gram-negative organisms.
Briefly, cryo-preserved bacterial cultures of challenge strains are streaked for isolation on appropriate agar medium, in this case Mueller Hinton II agar. Following incubation to allow growth of the colonies, plates are sealed with parafilm and stored refrigerated for up to two weeks. For preparation of assay inoculum and to ensure low variability, at least 5 colonies are picked from the agar plates with an inoculating loop and aseptically transferred to a culture tube containing 3 mL of Mueller-Hinton Broth (supplemented with divalent cations to required levels based on Manufacturers' certification). The broth culture is grown for 3-5 hours at 37° C. with shaking at 200 rpm. Meanwhile, 2-fold serial dilutions of test compounds are conducted in a 96 well plate with a final volume of 75 μL per well at 2-fold the final desired concentration. After the dilution plates are set up the growing cultures are then diluted in a cuvette containing MH II broth and the optical density is measured at 600 nm. The Inoculum is diluted such that 75 μL of this culture in Mueller-Hinton Broth results in a starting bacterial concentration of 5×10^5 CFU/mL when added to the dilution plates. The plates are incubated for 16-20 hours at 37° C. The MIC values are read visually as the lowest concentration well with no bacterial growth.
In general terms: Broth dilution looks for growth in wells or tubes with falling amounts of substance.

The next assay has as its system E. coli AG100. Kind of assay: Broth microdilution MIC, E. coli AG100 (wild-type parent). The class given is cell-based. Conditions: Escherichia coli; wild-type parent E. coli AG100, broth microdilution; read-out: MIC E. coli AG100. In short, it runs like this: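 Starting inoculum of 5×10^5 CFU/mL, from colonies grown 3-5 h in Mueller-Hinton broth with divalent cations, added to two-fold compound dilution series.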

The test system of a further assay is K. pneumoniae 848844. The assay can be described thus: microbe, parasite or virus in culture. It counts as cell-based, Klebsiella pneumoniae. Conditions: Klebsiella pneumoniae; K. pneumoniae 848844 producing SHV-11 and KPC-2; read-out: MIC K. pneumoniae 848844. In short, it runs like this: (§1)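 Visual MIC readout after 16-20 h at 37° C in CLSI-format microdilution. Compounds tested as 2-fold series against a 5×10^5 CFU/mL inoculum in cation-supplemented Mueller-Hinton broth.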

Another assay deals with E. coli ATCC 25922. The assay can be described thus: Broth microdilution MIC, E. coli ATCC 25922. It counts as cell-based. The settings on record: Escherichia coli, ATCC25922, read-out: MIC E. coli 25922. A digest of the protocol:
as §1

Another assay concerns A. baumannii ATCC 19606. Kind of assay: Broth microdilution MIC, A. baumannii ATCC 19606. It counts as cell-based. Conditions: Acinetobacter baumannii, ATCC19606, read-out: MIC A. baumannii ATCC 19606. A digest of the protocol: as §1
Assay [1] deals with P. aeruginosa (ΔmexAB-oprM). Kind of assay: microbe, parasite or virus in culture. The class given is cell-based. Conditions: Pseudomonas aeruginosa, read-out: MIC P. aeruginosa ΔmexAB-OprM. A digest of the protocol:
as §1

The subject of a further assay is E. coli 901C. The assay can be described thus: microbe, parasite or virus in culture. The class given is cell-based. The settings on record: Escherichia coli; hyper-permeable E. coli 901C, broth microdilution; read-out: MIC E. coli 901C. A digest of the protocol:
as §1

The next assay deals with K. pneumoniae UMM. Kind of assay: microbe, parasite or virus in culture. Conditions: Klebsiella pneumoniae; K. pneumoniae UMM producing SHV-5 and KPC-2; read-out: MIC K. pneumoniae UMM. The class given is cell-based. A digest of the protocol:
as §1

The subject of another assay is P. aeruginosa ATCC 35151. The assay can be described thus: microbe, parasite or virus in culture. The settings on record: Pseudomonas aeruginosa, ATCC35151; hyper-permeable P. aeruginosa ATCC 35151; read-out: MIC P. aeruginosa ATCC 35151. It counts as cell-based. In short, it runs like this: as §1
A further assay has as its system E. coli AG100A. The assay can be described thus: microbe, parasite or virus in culture. The settings on record: Escherichia coli, read-out: MIC E. coli AG100A. It counts as cell-based. A digest of the protocol:
as §1

For the next assay, the system named is E. coli D22. The assay can be described thus: microbe, parasite or virus in culture. It counts as cell-based. The settings on record: Escherichia coli; hyper-permeable E. coli D22, broth microdilution; read-out: MIC E. coli D22. A digest of the protocol: as §1
The next assay deals with K. pneumoniae SI-117. The assay can be described thus: microbe, parasite or virus in culture. The class given is cell-based. The settings on record: Klebsiella pneumoniae, SI117, read-out: MIC K. pneumoniae SI-117. In short, it runs like this:
as §1

Drawing on patent publication US12173018B2, “Penicillin-binding protein inhibitors” (priority 2018, dated 2024), this text covers MIC for seven molecules.

Molecules are shown by their SMILES. Where only a bound is given, the exact number is not on record here.

For the molecule `CCN1C[C@H](CCN)N(C(=O)NC(C(=O)N[C@H]2Cc3cccc(C(=O)O)c3OB2O)c2ncc(O)cc2F)C(=O)C1=O` (stereo partly drawn) [Example 240, (3R)-3-(2-((S)-6-(2-aminoethyl)-4-ethyl-2,3-dioxopiperazine-1-carboxamido)-2-(3-fluoro-5-hydroxypyridin-2-yl)acetamido)-2-hydroxy-3,4-dihydro-2H-benzo[e][1,2]oxaborinine-8-carboxylic acid], the MIC (with P. aeruginosa ATCC 27853; with E. coli AG100; with K. pneumoniae 848844; in the assay on E. coli ATCC 25922; with A. baumannii ATCC 19606; in [1]) was > 128 µg/mL each time. The MIC in the assay with E. coli 901C is 8 to 16 µg/mL; with K. pneumoniae UMM it was > 128 µg/mL; in the assay with P. aeruginosa ATCC 35151 it was 8 to 16 µg/mL; in the assay with E. coli AG100A, 8 to 16 µg/mL; with E. coli D22, 8 to 16 µg/mL; with K. pneumoniae SI-117, > 128 µg/mL.
For `CNCCN1CCN(C(=O)N[C@@H](C(=O)N[C@H]2Cc3ccc(F)c(C(=O)O)c3OB2O)c2ccc(O)c(O)c2Cl)C(=O)C1=O` [Example 242, (R)-3-((R)-2-(2-chloro-3,4-dihydroxyphenyl)-2-(4-(2-(methylamino)ethyl)-2,3-dioxopiperazine-1-carboxamido)acetamido)-7-fluoro-2-hydroxy-3,4-dihydro-2H-benzo[e][1,2]oxaborinine-8-carboxylic acid], the MIC in the assay on P. aeruginosa ATCC 27853 is 0.5 to 1 µg/mL; in the assay on E. coli AG100, 0.5 to 1 µg/mL; in the assay with K. pneumoniae 848844 it was 0.5 to 1 µg/mL; in the assay on E. coli ATCC 25922, 8 to 16 µg/mL; in the assay with A. baumannii ATCC 19606, 0.5 to 1 µg/mL; in [1], < 0.25 µg/mL. Further, the MIC in the assay on E. coli 901C was 0.5 to 1 µg/mL; with K. pneumoniae UMM, 0.5 to 1 µg/mL; in the assay on P. aeruginosa ATCC 35151, < 0.25 µg/mL; in the assay on E. coli AG100A, 0.5 to 1 µg/mL; in the assay on E. coli D22, 0.5 to 1 µg/mL; with K. pneumoniae SI-117, 2 to 4 µg/mL.
For `CC(=O)NCCN1CCN(C(=O)NC(C(=O)N[C@H]2Cc3ccc(F)c(C(=O)O)c3OB2O)c2ccc(O)c(O)c2Cl)C(=O)C1=O` (stereo partly drawn) [Example 243, (3R)-3-(2-(4-(2-acetamidoethyl)-2,3-dioxopiperazine-1-carboxamido)-2-(2-chloro-3,4-dihydroxyphenyl)acetamido)-7-fluoro-2-hydroxy-3,4-dihydro-2H-benzo[e][1,2]oxaborinine-8-carboxylic acid], the MIC is < 0.25 µg/mL in the assay with P. aeruginosa ATCC 27853; 2 to 4 µg/mL in the assay with E. coli AG100; 2 to 4 µg/mL in the assay on K. pneumoniae 848844; 8 to 16 µg/mL with E. coli ATCC 25922; 0.5 to 1 µg/mL in the assay on A. baumannii ATCC 19606; < 0.25 µg/mL in [1]. Further, the MIC is 0.5 to 1 µg/mL with E. coli 901C; 2 to 4 µg/mL in the assay with K. pneumoniae UMM; < 0.25 µg/mL in the assay on P. aeruginosa ATCC 35151; 0.5 to 1 µg/mL in the assay with E. coli AG100A; 2 to 4 µg/mL in the assay on E. coli D22; 2 to 4 µg/mL in the assay on K. pneumoniae SI-117.
For the molecule `NS(=O)(=O)NCCN1CCN(C(=O)NC(C(=O)N[C@H]2Cc3ccc(F)c(C(=O)O)c3OB2O)c2ccc(O)c(O)c2Cl)C(=O)C1=O` (stereo partly drawn) [Example 244, (3R)-3-(2-(2-chloro-3,4-dihydroxyphenyl)-2-(2,3-dioxo-4-(2-(sulfamoylamino)ethyl)piperazine-1-carboxamido)acetamido)-7-fluoro-2-hydroxy-3,4-dihydro-2H-benzo[e][1,2]oxaborinine-8-carboxylic acid], the MIC is < 0.25 µg/mL in the assay on P. aeruginosa ATCC 27853; 2 to 4 µg/mL with E. coli AG100; 2 to 4 µg/mL in the assay on K. pneumoniae 848844; 8 to 16 µg/mL with E. coli ATCC 25922; < 0.25 µg/mL in the assay with A. baumannii ATCC 19606; < 0.25 µg/mL in assay [1]. In addition, the MIC with E. coli 901C was 0.5 to 1 µg/mL; in the assay with K. pneumoniae UMM, 0.5 to 1 µg/mL; with P. aeruginosa ATCC 35151, < 0.25 µg/mL; in the assay with E. coli AG100A, 0.5 to 1 µg/mL; with E. coli D22 it was 0.5 to 1 µg/mL; in the assay on K. pneumoniae SI-117, 2 to 4 µg/mL.
Take `CCN1CC(C)(C)N(C(=O)NC(C(=O)N[C@H]2Cc3cccc(C(=O)O)c3OB2O)c2ncc(O)cc2F)C(=O)C1=O` (stereo partly drawn) [Example 245, (3R)-3-(2-(4-ethyl-2,2-dimethyl-5,6-dioxopiperazine-1-carboxamido)-2-(3-fluoro-5-hydroxypyridin-2-yl)acetamido)-2-hydroxy-3,4-dihydro-2H-benzo[e][1,2]oxaborinine-8-carboxylic acid]: the MIC (in the assay on P. aeruginosa ATCC 27853; in the assay on E. coli AG100; in the assay on K. pneumoniae 848844; in the assay with E. coli ATCC 25922; in the assay on A. baumannii ATCC 19606; in [1]) was > 128 µg/mL in each case. Moreover, the MIC was 8 to 16 µg/mL with E. coli 901C; > 128 µg/mL with K. pneumoniae UMM; 32 to 64 µg/mL in the assay with P. aeruginosa ATCC 35151; 32 to 64 µg/mL in the assay with E. coli AG100A; > 128 µg/mL in the assay on E. coli D22; > 128 µg/mL in the assay on K. pneumoniae SI-117.
Consider `C[C@H]1CN(CCN)C(=O)C(=O)N1C(=O)NC(C(=O)N[C@H]1Cc2cccc(C(=O)O)c2OB1O)c1ccc(O)c(O)c1Cl` (stereo partly drawn) [Example 248, (3R)-3-(2-((S)-4-(2-aminoethyl)-6-methyl-2,3-dioxopiperazine-1-carboxamido)-2-(2-chloro-3,4-dihydroxyphenyl)acetamido)-2-hydroxy-3,4-dihydro-2H-benzo[e][1,2]oxaborinine-8-carboxylic acid], for which the MIC in the assay on P. aeruginosa ATCC 27853 was 32 to 64 µg/mL; with E. coli AG100, 2 to 4 µg/mL; with K. pneumoniae 848844 it was 2 to 4 µg/mL; in the assay with E. coli ATCC 25922, 8 to 16 µg/mL; with A. baumannii ATCC 19606, 0.5 to 1 µg/mL; in assay [1], < 0.25 µg/mL. Further, the MIC in the assay on E. coli 901C is 0.5 to 1 µg/mL; with K. pneumoniae UMM, 2 to 4 µg/mL; in the assay on P. aeruginosa ATCC 35151, < 0.25 µg/mL; with E. coli AG100A it was 0.5 to 1 µg/mL; in the assay with E. coli D22 it was 2 to 4 µg/mL; in the assay with K. pneumoniae SI-117, 2 to 4 µg/mL.
On to `O=C(O)CN1CCN(C(=O)NC(C(=O)N[C@H]2Cc3cccc(C(=O)O)c3OB2O)c2ccc(O)c(O)c2Cl)C(=O)C1=O` (stereo partly drawn) [Example 249, (3R)-3-(2-(4-(carboxymethyl)-2,3-dioxopiperazine-1-carboxamido)-2-(2-chloro-3,4-dihydroxyphenyl)acetamido)-2-hydroxy-3,4-dihydro-2H-benzo[e][1,2]oxaborinine-8-carboxylic acid], for which the MIC in the assay with P. aeruginosa ATCC 27853 is 0.5 to 1 µg/mL; with E. coli AG100, 8 to 16 µg/mL; with K. pneumoniae 848844, 2 to 4 µg/mL; in the assay with E. coli ATCC 25922 it was 32 to 64 µg/mL; with A. baumannii ATCC 19606, 0.5 to 1 µg/mL; in assay [1], < 0.25 µg/mL. The MIC in the assay on E. coli 901C is 2 to 4 µg/mL; in the assay with K. pneumoniae UMM it was 8 to 16 µg/mL; in the assay on P. aeruginosa ATCC 35151, < 0.25 µg/mL; in the assay on E. coli AG100A, 8 to 16 µg/mL; in the assay with E. coli D22, 8 to 16 µg/mL; with K. pneumoniae SI-117, 8 to 16 µg/mL.
